Reference: patent US8722663B2, “Di-substituted pyridine derivatives as anticancers” (Otsuka Pharmaceutical Co., Ltd., priority 2010, dated 2014)
Where a name gives a salt, the structure may show the parent alone.

Tests used:
[1] = tested on: human hepatic cancer cell line (HuH-7); assay: Growth inhibition of HuH-7 cells, sulforhodamine B method; assay type: cell-based; details: 5 days with test compound
Procedure: Growth inhibition of a human breast cancer cell line (MDA-MB-468) was determined by the sulforhodamine B method based on the method of Skehan P. et al. (J Natl Cancer Inst. 1990 Jul. 4; 82(13): 1107-12). In the study, MDA-MB-468 cells were seeded on DMEM medium containing 10% fetal bovine serum in a 96-well microplate. After 24-h incubation at 37° C. in the presence of 5% carbon dioxide, the test compound was added and the cells were incubated for another 5 days. After incubation, a trichloroacetic acid solution was added to yield the final concentration of 10% and the cells were left to stand at 4° C. for 1 hour to fix. Then, the cells were washed with water to remove the medium and trichloroacetic acid and dried in the air. The dried cells were stored at 4° C. until they were stained with sulforhodamine B. To each well, 1% acetic acid solution containing 0.4% sulforhodamine B was added and left to stand for 20 to 30 minutes at room temperature. After discarding the supernatant, each well was washed with 1% acetic acid solution, and 10 mM Tris([…]) solution was added while stirring to elute the dye taken into the cells. Then, the optical density was determined at the measurement wavelength of 492 nm and the reference wavelength of 690 nm, and the difference was calculated. The cell growth activity in each well was defined as the value determined by subtracting the OD in the control well not containing cells (the difference in absorbance between 492 nm and 690 nm) from that in the test well.
The 50% inhibitory concentration (IC50 (nM)) of the test compound was determined by comparing the cell growth activity in the well containing the test compound with that of the control not containing the test compound.
The growth inhibition on a human hepatic cancer cell line (HuH-7) was also determined by the above method.

Structure (SMILES) | IC50 ([1]; Homo sapiens, 120 h) [nM] | melting point [°C] | IC50 [1] [nM]
Cc1cc(/C=C/C(=O)N2CCN(Cc3ccc(CCOc4ccc(C(C)C)cc4)cc3)CC2)cc(Cl)c1Oc1ccc(OCc2ccc(Cl)nc2)cn1.Cl [Example 443, (E)-3-[3-Chloro-4-({5-[(6-chloropyridin-3-yl)methoxy]pyridin-2-yl}oxy)-5-methylphenyl]-1-[4-(4-{2-[4-(propan-2-yl)phenoxy]ethyl}benzyl)piperazin-1-yl]prop-2-en-1-one hydrochloride] | < 10 | 214.8 to 215.3 | 
Cc1cc(/C=C/C(=O)N2CCN(Cc3ccc(Oc4ccc(Cl)cc4)cc3)CC2)cc(C)c1Oc1ccc(OCc2ccc(C#N)cc2)cn1.Cl [Example 692, 4-{[(6-{4-[(E)-3-{4-[4-(4-Chlorophenoxy)benzyl]piperazin-1-yl}-3-oxoprop-1-en-1-yl]-2,6-dimethylphenoxy}pyridin-3-yl)oxy]methyl}benzonitrile hydrochloride] | < 10 | 231.9 to 233.7 | 
Cc1ccc(OC/C=C/c2ccc(CN3CCN(C(=O)/C=C/c4cc(C)c(Oc5ccc(OCc6ccc(F)cc6)cn5)c(C)c4)CC3)cc2C)cc1 [Example 407, (2E)-3-[4-({5-[(4-fluorobenzyl)oxy]pyridin-2-yl}oxy)-3,5-dimethylphenyl]-1-(4-{3-methyl-4-[(1E)-3-(4-methylphenoxy)prop-1-en-1-yl]benzyl}piperazin-1-yl)prop-2-en-1-one] | < 10 |  | 
COc1cccc(OCCc2ccc(CN3CCN(C(=O)/C=C/c4ccc(Oc5ccc(OCc6ccc(F)cc6)cn5)c(Cl)c4)CC3)cc2)c1.Cl [Example 757, (E)-3-[3-chloro-4-({5-[(4-fluorobenzyl)oxy]pyridin-2-yl}oxy)phenyl]-1-(4-{4-[2-(3-methoxyphenoxy)ethyl]benzyl}piperazin-1-yl)prop-2-en-1-one hydrochloride] | < 10 | 201.5 to 202 | 
Cc1cc(/C=C/C(=O)N2CCN(Cc3ccc(CCOc4ccc(C(C)C)cc4)cc3)CC2)cc(Cl)c1Oc1ccc(OCc2cccnc2)cn1.Cl [Example 445, (E)-3-(3-Chloro-5-methyl-4-{[5-(pyridin-3-ylmethoxy)pyridin-2-yl]oxy}phenyl)-1-[4-(4-{2-[4-(propan-2-yl)phenoxy]ethyl}benzyl)piperazin-1-yl]prop-2-en-1-one hydrochloride] | < 10 | 166.4 to 167.7 | 
Cc1ccc(OCCc2ccc(CN3CCN(C(=O)/C=C/c4cc(C)c(Oc5ccc(OCc6cncs6)cn5)c(C)c4)CC3)cc2)cc1.Cl [Example 596, (E)-3-(3,5-Dimethyl-4-{[5-(1,3-thiazol-5-ylmethoxy)pyridin-2-yl]oxy}phenyl)-1-(4-{4-[2-(4-methylphenoxy)ethyl]benzyl}piperazin-1-yl)prop-2-en-1-one hydrochloride] | < 10 | 207 to 207.2 | 
Cc1cc(/C=C/C(=O)N2CCN(Cc3ccc(CCOCc4ccc(Cl)cc4)cc3)CC2)cc(C)c1Oc1ccc(OCc2ccncc2)cn1 [Example 384, (E)-1-[4-(4-{2-[(4-chlorobenzyl)oxy]ethyl}benzyl)piperazin-1-yl]-3-(3,5-dimethyl-4-{[5-(pyridin-4-ylmethoxy)pyridin-2-yl]oxy}phenyl)prop-2-en-1-one] | < 10 |  | 
Cc1cc(/C=C/C(=O)N2CCN(Cc3ccc(COc4ccc(OC(C)C)cc4)cc3)CC2)cc(C)c1Oc1ccc(OCc2ccc(C#N)cc2)cn1.Cl [Example 647, 4-({[6-(2,6-Dimethyl-4-{(E)-3-oxo-3-[4-(4-{[4-(propan-2-yloxy)phenoxy]methyl}benzyl)-piperazin-1-yl]prop-1-en-1-yl}phenoxy)pyridin-3-yl]oxy}methyl)benzonitrile hydrochloride] | < 10 | 216.2 to 219.2 | 
COc1ccc(CCOc2ccc(CN3CCN(C(=O)/C=C/c4cc(C)c(Oc5ccc(OCc6ccc(C(F)(F)F)cc6)cn5)c(Cl)c4)CC3)cc2)cc1 [Example 688, (E)-3-{3-Chloro-5-methyl-4-[(5-{[4-(trifluoromethyl)benzyl]oxy}pyridin-2-yl)oxy]phenyl}-1-(4-{4-[2-(4-methoxyphenyl)ethoxy]benzyl}piperazin-1-yl)prop-2-en-1-one hydrochloride] | < 10 |  | 
Cc1cc(/C=C/C(=O)N2CCN(Cc3ccc(CCOc4ccc(F)cc4)cc3)CC2)cc(Cl)c1Oc1ccc(OCc2ccccc2Cl)cn1.Cl [Example 449, (E)-3-[3-Chloro-4-({5-[(2-chlorobenzyl)oxy]pyridin-2-yl}oxy)-5-methylphenyl]-1-(4-{4-[2-(4-fluorophenoxy)ethyl]benzyl}piperazin-1-yl)prop-2-en-1-one hydrochloride] | < 10 | 211.9 to 214 | 
C=Cc1ccc(CN2CCN(C(=O)/C=C/c3cc(C)c(Oc4ccc(OCc5ccccc5Cl)cn4)c(Cl)c3)CC2)cc1 [Example 391, (E)-3-[3-chloro-4-({5-[(2-chlorobenzyl)oxy]pyridin-2-yl}oxy)-5-methylphenyl]-1-[4-(4-ethenylbenzyl)-piperazin-1-yl]prop-2-en-1-one] | < 10 |  | 
COc1ccc(OCCc2ccc(CN3CCN(C(=O)/C=C/c4cc(C)c(Oc5ccc(OCc6ccc(C#N)cc6)cn5)c(C)c4)CCO3)cc2)cc1 [Example 402, 4-{[(6-{4-[(E)-3-(2-{4-[2-(4-Methoxyphenoxy)ethyl]benzyl}-1,2,5-oxadiazepan-5-yl)-3-oxoprop-1-en-1-yl]-2,6-dimethylphenoxy}pyridin-3-yl)oxy]methyl}benzonitrile] | < 10 |  | 
CC(C)c1ccc(OCCc2ccc(CN3CCN(C(=O)c4ccc5cc(Oc6ccc(OCc7cccc(F)c7F)cn6)ccc5c4)CC3)cc2)cc1 [Example 542, [6-({5-[(2,3-Difluorobenzyl)oxy]pyridin-2-yl}oxy)naphthalen-2-yl][4-(4-{2-[4-(propan-2-yl)phenoxy]ethyl}benzyl)piperazin-1-yl]methanone hydrochloride] | < 10 |  | 
COc1ccc(Oc2ccc3cc(CN4CCN(C(=O)/C=C/c5cc(C)c(Oc6ccc(OCc7ccccc7Cl)cn6)c(Cl)c5)CC4)ccc3n2)cc1.Cl [Example 675, (E)-3-[3-Chloro-4-({5-[(2-chlorobenzyl)oxy]pyridin-2-yl}oxy)-5-methylphenyl]-1-(4-{[2-(4-methoxyphenoxy)quinolin-6-yl]methyl}piperazin-1-yl)prop-2-en-1-one hydrochloride] | < 10 | 228 to 228.9 | 
C/C(C(=O)N1CCN(Cc2ccc(CCOc3ccc(F)cc3)cc2)CC1)=C(/C)c1cc(C)c(Oc2ccc(OCc3ccc(C)cc3)cn2)c(Cl)c1.O=C(O)C(=O)O [Example 751, (E)-3-[3-Chloro-5-methyl-4-({5-[(4-methylbenzyl)oxy]pyridin-2-yl}oxy)phenyl]-1-(4-{4-[2-(4-fluorophenoxy)ethyl]benzyl}piperazin-1-yl)-2-methylbut-2-en-1-one ethanedioate] | < 10 | 236.1 to 236.6 | 
COc1cc(/C=C/C(=O)N2CCN(Cc3ccc(CCOc4ccc(C)cc4)cc3)CC2)ccc1Oc1ccc(OCc2ccccc2Cl)cn1.Cl [Example 482, (E)-3-[4-({5-[(2-Chlorobenzyl)oxy]pyridin-2-yl}oxy)-3-methoxyphenyl]-1-(4-{4-[2-(4-methylphenoxy)ethyl]benzyl}piperazin-1-yl)prop-2-en-1-one hydrochloride] | < 10 | 203.4 to 205.7 | 
COc1ccc(OCCc2ccc(CN3CCN(C(=O)/C=C/c4cc(C)c(Oc5ccc(OCc6ccc(C)c(F)c6)cn5)c(Cl)c4)CC3)cc2)cc1 [Example 428, (E)-3-[3-Chloro-4-({5-[3-fluoro-4-methylbenzyl)oxy]pyridin-2-yl}oxy)-5-methylphenyl]-1-(4-{4-[2-(4-methoxyphenoxy)ethyl]benzyl}piperazin-1-yl)prop-2-en-1-one hydrochloride] |  |  | < 10
